Where a name gives a salt, the structure may show the parent alone. Read-outs that look alike come from different tables or passages of the source.
Assays:
NCI-H1417 cells = experiment: In vitro cell proliferation detection (CellTiter-Glo, 7 days); assay type: cell-based; details: Homo sapiens, 168 h; NCI-H1417 cells, 7 days, CellTiter-Glo; read-out: NCI-H1417 proliferation inhibition IC50
LSD1 = LSD1 (Homo sapiens (Human), UniProt O60341); experiment: LSD1 enzyme activity detection (HTRF); assay type: biochemical; details: read-out: Inhibition of enzymatic activity of LSD1 IC50

SMILES	IC50 (NCI-H1417 cells)	IC50 (LSD1; HTRF, H3K4me1 substrate)	IC50 (LSD1)
COc1ccc(-c2c(-c3ccc(C#N)c(O)c3)nc(N3C4CCC3CC(N)C4)n3ccnc23)cc1F (stereo not drawn) [Example 185, 4-(5-(3-amino-8-azabicyclo[3.2.1]octane-8-yl)-8-(3-fluoro-4-methoxyphenyl)imidazolo[1,2-c]pyrimidin-7-yl)-2-hydroxybenzonitrile]	160 nM	14.1 nM	
N#Cc1ccc(-c2nc(N3C4CCC3CC(N)C4)n3ccnc3c2-c2cc3nonc3cc2F)cc1F (stereo not drawn) [Example 186, 4-(5-(3-amino-8-azabicyclo[3.2.1]octane-8-yl)-8-(6-fluorobenzo[c] [1,2,5]oxadiazole-5-yl)imidazolo [1,2-c]pyrimidin-7-yl)-2-fluorobenzonitrile]	18 nM	17.3 nM	
COc1ccc(-c2c(-c3ccc(C#N)c(F)c3)nc(N3CCC(N)CC3)n3c(C)cnc23)cc1O [Example 187, 4-(5-(4-aminopiperidin-1-yl)-8-(3-hydroxy-4-methoxyphenyl)-3-methylimidazolo[1,2-c]pyrimidin-7-yl)-2-fluorobenzonitrile]	1.11 nM	0.8 ± 0.1 nM	
Cc1ccc(-c2c(-c3ccc(C#N)cc3)cc3c(N4CC(N)C4)nccn23)cc1 [Example 188, 4-(1-(3-aminoazetidin-1-yl)-6-(p-tolyl)pyrrolo[1,2-a]pyrazin-7-yl)benzonitrile hydrochloride]	> 1000 nM	35 nM	
CN[C@@H]1CCCN(c2nccn3c(-c4ccc(C)cc4)c(-c4ccc(C#N)cc4)cc23)C1 [Example 189, (R)-4-(1-(3-(methylamino)piperidin-1-yl)-6-(p-tolyl)pyrrolo[1,2-a]pyrazin-7-yl)benzonitrile hydrochloride]	4.04 nM	0.29 ± 0.11 nM	
Cc1ccc(-c2c(-c3ccc(C#N)cc3)cc3c(N4CCN(C)CC4)nccn23)cc1 [Example 190, 4-(1-(4-methylpiperazin-1-yl)-6-(p-tolyl)pyrrolo [1,2-a]pyrazin-7-yl) benzonitrile]	1120 nM	0.331 nM	
Cc1ccc(-c2c(-c3ccc(C#N)cc3)cc3c(N4CCC(N)C4)nccn23)cc1 (stereo not drawn) [Example 192, 4-(1-(3-aminopyrrolidin-1-yl)-6-(p-tolyl)pyrrolo [1,2-a]pyrazine-7-yl) benzonitrile hydrochloride]	81 nM	10.6 nM	
Cc1ccc(-c2c(-c3ccc(C#N)cc3)cc3c(N4CCC(N)CC4)nccn23)cc1 [Example 193, 4-(1-(4-aminopiperidin-1-yl)-6-(p-tolyl)pyrrolo[1,2-a]pyrazin-7-yl)benzonitrile hydrochloride]	61.4 nM	1.72 nM	
Cc1ccc(-c2c(-c3ccc(C#N)cc3)cc3c(N4CCC(N)CC4)nncn23)cc1 [Example 196, 4-(1-(4-aminopiperidin-1-yl)-6-(p-tolyl)pyrrolo[1,2-d][1,2,4]triazin-7-yl)benzonitrile hydrochloride]	656 nM		37.7 nM
CNC1CCCN(c2ccnn3c(-c4ccc(C)cc4)c(-c4ccc(C#N)cc4)cc23)C1 (stereo not drawn) [Example 197, 4-(4-(3-(methylamino)piperidin-1-yl)-7-(p-tolyl)pyrrolo[1,2-b]pyridazin-6-yl]benzonitrile hydrochloride]	24.2 nM		9.44 ± 5.96 nM
Cc1sc(C(=O)N2C3CCC2CC(N)C3)cc1-c1ccc(C#N)c(F)c1 (stereo not drawn) [Example 199, 4-(5-(3-amino-8-azadicyclo [3.2.1]octane-8-carbonyl)-2-methylthiophene-3-yl)-2-fluorobenzonitrile hydrochloride]	> 1000 nM	72 nM	
N#Cc1ccc(-c2cc(C(=O)N3C4CCC3CC(N)C4)sc2-c2ccc3cc[nH]c3c2)cc1F (stereo not drawn) [Example 200, 4-(5-(3-amino-8-azabicyclo [3.2.1]octane-8-carbonyl)-2-(1-hydro-indol-6-yl)thiophen-3-yl)-2-fluorobenzonitrile]	34 nM	0.69 nM	
N#Cc1ccc(-c2cc(C(=O)N3C4CCC3CC(N)C4)sc2-c2ccccn2)cc1F (stereo not drawn) [Example 201, 4-(5-(3-amino-8-azabicyclo [3.2.1]octane-8-carbonyl)-2-(pyridin-2-yl)thiophen-3-yl)-2-fluorobenzonitrile Hydrochloride]	384 nM	26.8 nM	
N#Cc1ccc(-c2cc(C(=O)N3C4CCC3CC(N)C4)sc2-c2ccncn2)cc1F (stereo not drawn) [Example 202, 4-(5-(3-amino-8-azabicyclo [3.2.1]octane-8-carbonyl)-2-(pyrimidin-4-yl)thiophen-3-yl)-2-fluoro-benzonitrile hydrochloride]	> 1000 nM	77.1 nM	
N#Cc1ccc(-c2cc(C(=O)N3C4CCC3CC(N)C4)sc2-c2ccc3cn[nH]c3c2)cc1F (stereo not drawn) [Example 203, 4-(5-(3-amino-8-azabicyclo [3.2.1]octane-8-carbonyl)-2-(1H-indazol-6-yl)thiophen-3-yl)-2-fluoro-benzonitrile]	37.6 nM	0.39 nM	
Cc1noc2cc(-c3sc(C(=O)N4C5CCC4CC(N)C5)cc3-c3ccncc3)c(F)cc12 (stereo not drawn) [Example 204, (3-amino-8-azabicyclo [3.2.1]octane-8-yl) (5-(5-fluoro-3-methylbenzo [d]isoxazol-6-yl)-4-(pyridin-4-yl)thiophen-2-yl)methanone hydrochloride]	118 nM	12.2 ± 7.3 nM	
Cc1noc2c(-c3sc(C(=O)N4C5CCC4CC(N)C5)cc3-c3ccc(C#N)c(F)c3)c(F)ccc12 (stereo not drawn) [Example 209, 4-(5-(3-amino-8-azabicyclo [3.2.1]octan-8-carbonyl)-2-(6-fluoro-3-methylbenzo[d]isoxazol-7-yl)thiophen-3-yl)-2-fluoro-benzonitrile hydrochloride]	1.44 nM	0.507 nM	
N#Cc1ccc(-c2cc(C(=O)N3C4CCC3CC(N)C4)sc2-c2ccc3oc(=O)[nH]c3c2)cc1F (stereo not drawn) [Example 214, 4-(5-(3-amino-8-azabicyclo [3.2.1]octan-8-carbonyl)-2-(2-carbonyl-2,3-dihydrobenzo[d]oxazol-5-yl)thiophen-3-yl)-2-fluoro benzonitrile hydrochloride]	493 nM	0.47 ± 0.13 nM	
N#Cc1ccc(-c2cc(C(=O)N3C4CCC3CC(N)C4)sc2-c2cc3[nH]nnc3cc2F)cc1F (stereo not drawn) [Example 216, 4-(5-(3-amino-8-azabicyclo [3.2.1]octan-8-carbonyl)-2-(5-fluoro-1H-benzo [d][1,2,3]triazol-6-yl)thio-phen-3-yl)-2-fluorobenzo-nitrile hydrochloride]	20.9 nM	8.14 ± 1.84 nM	
CC(C)(O)Cn1ncc2cc(F)c(-c3sc(C(=O)N4C5CCC4CC(N)C5)cc3-c3ccc(C#N)c(F)c3)cc21 (stereo not drawn) [Example 217, 4-(5-(3-amino-8-azabicyclo [3.2.1]octan-8-carbonyl)-2-(5-fluoro-1-(2-hydroxy-2-methylpropyl)-1H-indazol-6-yl)thiophen-3-yl)-2-fluorobenzonitrile hydrochloride]	67.8 nM	12.8 nM	
COc1ccc(-c2sc(C(=O)N3C4CCC3CC(N)C4)cc2-c2ccc(C#N)c(F)c2)cc1O (stereo not drawn) [Example 218, 4-(5-(3-amino-8-azabicyclo [3.2.1]octan-8-carbonyl)-2-(3-hydroxy-4-methoxy-phenyl)thiophen-3-yl)-2-fluorobenzonitrile]	0.88 nM	0.15 ± 0.03 nM	

— US20240216357A1 (SICHUAN HUIYU PHARMACEUTICAL CO., LTD., priority 2021, published 2024)
